Measurements from patent US20100261694A1 (priority 2009, published 2010).
Where two headings read alike, the source gives them in different places.

How the values were obtained:
[1] = tested on: Physcomitrella patens gametophore cells; assay type: cell-based; conditions: for Tunicamycin induced cell death: moss, co-treatment 100 μM chaperone with 10 μg/ml tunicamycin, 72h
[2] = tested on: Triticum aestivum leaf segments; assay type: cell-based; conditions: for Tunicamycin induced cell death: wheat, co-treatment 100 μM chaperone with 10 μg/ml tunicamycin, 72h
F. graminearum [3] = assay type: in vivo, Fusarium graminearum; conditions: 100 μM chaperone; for Proliferation of F. graminearum on host tissue (GFP-tagged fungal cells, PCR): moss tissues; for Cell death markers (chlorosis, TUNEL-positive nuclei, Evans Blue staining, ROS induction) by the fungal pathogen: moss
F. graminearum [4] = assay type: in vivo, Fusarium graminearum; conditions: 100 μM chaperone; for Proliferation of F. graminearum on host tissue (GFP-tagged fungal cells, PCR): wheat tissues; for Cell death markers (chlorosis, TUNEL-positive nuclei, Evans Blue staining, ROS induction) by the fungal pathogen: wheat
Fusarium graminearum = assay type: in vivo; conditions: 100 μM chaperone; 10 days postinoculation
F. graminearum [5] = assay type: cell-based, Fusarium graminearum; conditions: 100 μM; rich solid medium, no host

Molecule: O=C(O)CCCc1ccccc1 [PBA, 4-phenylbutyric acid]
- Tunicamycin induced cell death [1]: attenuated
- Tunicamycin induced cell death [2]: attenuated
- Proliferation of F. graminearum on host tissue (GFP-tagged fungal cells, PCR) (F. graminearum [3]): significantly suppress
- Cell death markers (chlorosis, TUNEL-positive nuclei, Evans Blue staining, ROS induction) by the fungal pathogen (F. graminearum [3]): attenuated
- Proliferation of F. graminearum on host tissue (GFP-tagged fungal cells, PCR) (F. graminearum [4]): significantly suppress
- Cell death markers (chlorosis, TUNEL-positive nuclei, Evans Blue staining, ROS induction) by the fungal pathogen (F. graminearum [4]): attenuated
- Fungal growth on inoculated wheat seeds (Fusarium graminearum): suppression of fungal growth
- Fungal growth and reproduction on solid growth medium (F. graminearum [5]): did not affect fungal growth and reproduction

Molecule: C[C@H](CCC(=O)NCCS(=O)(=O)O)[C@H]1CC[C@H]2[C@@H]3[C@@H](O)C[C@@H]4C[C@H](O)CC[C@]4(C)[C@H]3CC[C@]12C [TUDCA, tauroursodeoxycholic acid]
- Tunicamycin induced cell death [1]: attenuated
- Tunicamycin induced cell death [2]: attenuated
- Proliferation of F. graminearum on host tissue (GFP-tagged fungal cells, PCR) (F. graminearum [3]): significantly suppress
- Cell death markers (chlorosis, TUNEL-positive nuclei, Evans Blue staining, ROS induction) by the fungal pathogen (F. graminearum [3]): attenuated
- Proliferation of F. graminearum on host tissue (GFP-tagged fungal cells, PCR) (F. graminearum [4]): significantly suppress
- Cell death markers (chlorosis, TUNEL-positive nuclei, Evans Blue staining, ROS induction) by the fungal pathogen (F. graminearum [4]): attenuated
- Fungal growth on inoculated wheat seeds (Fusarium graminearum): suppression of fungal growth
- Fungal growth and reproduction on solid growth medium (F. graminearum [5]): did not affect fungal growth and reproduction

Molecule: Tunicamycin
- Cell death (Evans Blue staining) compared to untreated control [1]: more cell death
- Cell death (Evans Blue staining) compared to untreated control [2]: more cell death
